From patent US20200147039A1, “COMPOUNDS USEFUL IN INHIBITING HUMAN TREFOIL FACTOR 3” (NATIONAL UNIVERSITY OF SINGAPORE, priority 2017, published 2020)

Legend:
[1] = system: MCF-7; assay: AlamarBlue cell viability assay, MCF7; assay type: cell-based, human
Text: (A) Inhibitory concentration 50% (IC50) values for compound 43 in the MC cell lines are tabulated, using an AlamarBlue™ cell viability assay as previously described in Pandey V et al., Breast Cancer Res. 2014; 16(5):429. (B) Measured dose-dependent manner effect of compound 43 on the viability of MC cells (left-side, TFF3-high and right, TFF3-low) using AlamarBlue™ viability assay as previously described (ibid). (C) Apoptotic cell death of mammary carcinoma cell lines measured after treatment with 10 μM compound 43 using flow cytometry analysis at 24 hour as described previously in Keerthy H K et al., PloS one. 2014; 9(9):e107118. Annexin V-FITC staining is indicated on the X-axis and PI staining on the Y-axis. […] Acquisition of Annexin V and PI data were represented as percentage (%) in each quadrant. Note: CM, conditioned media; MCF10A and MCF12A, non-transformed immortalized-mammary epithelial cell line. Points are mean of triplicate experiments; bars, ±SD. Statistical significance was assessed by using an unpaired two-tailed Student's t test (P<0.05 was considered as significant) using GraphPad Prism5. Columns are mean of triplicate experiments; bars, ±SD. **P<0.001, *P<0.05.
(§1) The human immortalized mammary epithelial cell lines, MCF10A, and MCF12A; and immortalized hepatocellular epithelial cell line, LO2 were obtained from the American Type Culture Collection (ATCC, Rockville, Md.) and were cultured as per ATCC propagation instructions. MC cell lines, MCF7, T47D, BT474, BT20, MDA-MB-361, MDA-MB-436, MDA-MB-468, and MDA-MB-231; endometrial carcinoma cell lines, Ishikawa, ECC1, RL95-2 and AN3; hepatocellular carcinoma cell lines, Hep3B, H2P, and H2M; colon carcinoma cell lines, DLD-1, and Caco-2; and prostate carcinoma cell lines, PC3, LNCaP, and DU145 were obtained from the American Type Culture Collection (ATCC, Rockville, Md.). Pancreatic carcinoma cell lines, AsPC-1 and BxPC-3; Lung carcinoma cell lines, HCC-827, NCI-H1975, HCC-4006, PC-14, and NCI-H1299; and Thyroid carcinoma cell lines HTH83, CAL62, T238, and OGK-M were obtained from Prof. H. Phillip Koeffler's laboratory at The Cancer Science Institute of Singapore, National University of Singapore (NUS). Gastric carcinoma cell lines, AGS, MKN-28, MKN-45, and A2-528 were obtained from Prof. Yoshiaki Ito's laboratory at The Cancer Science Institute of Singapore, NUS. All cell lines were cultured as per ATCC propagation instructions.
The above synthesised compounds were initially evaluated against a range of carcinoma cells using an AlamarBlue™ cell viability assay (using the protocol discussed above). The tested compounds were generally efficacious at reducing the viability of various carcinoma cells compared to vehicle (DMSO) treated cells. Table 8 provides selected IC50 data for certain of the compounds synthesised herein against MCF-7.
In table 9 IC50 values of compound 43 compound library in several cancer cell lines are tabulated, using an AlamarBlue® cell viability assay as previously described in Pandey V et al., Breast Cancer Res. 2014; 16(5):429. Statistical analysis was assessed by using GraphPad Prism5. Note: NV, no value.

[2] = system: HCC827; assay: AlamarBlue cell viability assay, HCC827; assay type: cell-based; settings: Homo sapiens, Lung
Protocol: as §1, with “Yoshiaki Ito's laboratory at The Cancer Science Institute of Singapore, NUS. All cell lines were cultured as per ATCC propagation instructions.” left out
(§2) In table 9 IC50 values of compound 43 compound library in several cancer cell lines are tabulated, using an AlamarBlue® cell viability assay as previously described in Pandey V et al., Breast Cancer Res. 2014; 16(5):429. Statistical analysis was assessed by using GraphPad Prism5. […]

[3] = system: Hep3B; assay: AlamarBlue cell viability assay, Hep3B; assay type: cell-based; settings: Homo sapiens, Hepatocellular
Protocol: as §1, with “Yoshiaki Ito's laboratory at The Cancer Science Institute of Singapore, NUS. All cell lines were cultured as per ATCC propagation instructions.” left out
as §2

[4] = system: H2M; assay: AlamarBlue cell viability assay, H2M; assay type: cell-based; settings: Homo sapiens, Hepatocellular
Protocol: as §1, with “Yoshiaki Ito's laboratory at The Cancer Science Institute of Singapore, NUS. All cell lines were cultured as per ATCC propagation instructions.” left out
as §2

[5] = system: DLD-1; assay: AlamarBlue cell viability assay, DLD-1; assay type: cell-based; settings: Homo sapiens, Colon
Protocol: as §1, with “Yoshiaki Ito's laboratory at The Cancer Science Institute of Singapore, NUS. All cell lines were cultured as per ATCC propagation instructions.” left out
as §2

[6] = system: CAL62; assay: AlamarBlue cell viability assay, CAL62; assay type: cell-based; settings: Homo sapiens, CAL-62, Thyroid
Protocol: as §1, with “Yoshiaki Ito's laboratory at The Cancer Science Institute of Singapore, NUS. All cell lines were cultured as per ATCC propagation instructions.” left out
as §2

[7] = system: MKN-28; assay: AlamarBlue cell viability assay, MKN-28; assay type: cell-based; settings: Homo sapiens, Gastric
Protocol: as §1, with “Yoshiaki Ito's laboratory at The Cancer Science Institute of Singapore, NUS. All cell lines were cultured as per ATCC propagation instructions.” left out
as §2

[8] = system: MCF7; assay: qPCR analysis of mRNA levels of genes associated with oncogenic progression, MCF7; assay type: cell-based, human; settings: MCF7, 10 μM
Protocol: Total RNA was isolated from cells using TRIzol Plus RNA Purification system as previously described in Pandey V et al., Endocrinology. 2010; 151(3):909-920. qPCR assays were performed as previously described in Pandey V et al., Endocrinology. 2010; 151(3):909-920; and Pandey V et al., Endocrinology. 2008; 149(8):3909-3919. Gene expression analysis was performed as previously described in Pandey V et al., Endocrinology. 2010; 151(3):909-920; and Pandey V et al., Endocrinology. 2008; 149(8):3909-3919.

[9] = system: TFF3-high expressing mammary carcinoma cell (MCF7, BT474, MDA-MB-361); assay: Cell viability in 3D Matrigel culture, AlamarBlue (FIG. 4); assay type: cell-based, human; settings: cultured 14 days in 3D Matrigel, vs vehicle (DMSO)
Protocol: Cell viability in colonies generated by MCF7, BT474 and MDA-MB-361 cell after exposure with compound 43 or vehicle (DMSO) cultured 14 days in 3D Matrigel using AlamarBlue™ viability assay as previously described in Pandey V et al., Breast Cancer Res. 2014; 16(5):429. Microscopic visualization (right side) of colonies generated by BT474 and MCF7 cells after exposure with compound 43 or vehicle (DMSO) cultured 14 days in 3D Matrigel. On days 5, 8 and 11, colonies were treated with compound 43 or DMSO. Statistical significance was assessed by using an unpaired two-tailed Student's t test (P<0.05 was considered as significant) using GraphPad Prism5.

SMILES: Cc1cc(-c2ccc(C3C(C#N)=C(N)Oc4c3c(=O)oc3ccccc43)cc2)cnc1F (centres unmarked) [Compound 43, 2-Amino-4-(4-(6-fluoro-5-methylpyridin-3-yl)phenyl)-5-oxo-4H,5H-pyrano[3,2-c]chromene-3-carbonitrile]
- IC50 ([1]; Homo sapiens, MCF7, MCF-7, AlamarBlue cell viability (Table 8)): 3.21 µM
- IC50 ([1]; Homo sapiens, MCF7, Mammary, MCF7): 3.21 µM
- IC50 ([1]; MCF-7, AlamarBlue cell viability (Table 8)): 4.51 µM
- IC50 [2]: 0.93 µM
- IC50 [3]: 8.44 µM
- IC50 [4]: 7.86 µM
- IC50 [5]: 4.12 µM
- IC50 [6]: 33.1 µM
- IC50 [7]: 84.9 µM
- APAF1 mRNA, Fold change relative to vehicle control [8]: 0.94 fold
- ATM mRNA, Fold change relative to vehicle control [8]: 0.32 fold
- BAD mRNA, Fold change relative to vehicle control [8]: 0.09 fold
- BAK1 mRNA, Fold change relative to vehicle control [8]: 2.09 fold
- BAX mRNA, Fold change relative to vehicle control [8]: 18.54 fold
- BCL2L1 mRNA, Fold change relative to vehicle control [8]: 0.04 fold
- BCL2 mRNA, Fold change relative to vehicle control [8]: 0.06 fold
- BCLAF1 mRNA, Fold change relative to vehicle control [8]: 0.87 fold
- BRCA1 mRNA, Fold change relative to vehicle control [8]: 2.00 fold
- CASP7 mRNA, Fold change relative to vehicle control [8]: 30.71 fold
- CCND1 mRNA, Fold change relative to vehicle control [8]: 0.01 fold
- CDC25A mRNA, Fold change relative to vehicle control [8]: 0.49 fold
- CDK2 mRNA, Fold change relative to vehicle control [8]: 0.15 fold
- CDK4 mRNA, Fold change relative to vehicle control [8]: 0.18 fold
- CDKN1A mRNA, Fold change relative to vehicle control [8]: 114.92 fold
- CDKN1B mRNA, Fold change relative to vehicle control [8]: 11.08 fold
- CDKN2A mRNA, Fold change relative to vehicle control [8]: 5.45 fold
- CFLAR mRNA, Fold change relative to vehicle control [8]: 0.02 fold
- CHEK2 mRNA, Fold change relative to vehicle control [8]: 1.14 fold
- Cyclin E1 mRNA, Fold change relative to vehicle control [8]: 0.01 fold
- E2F1 mRNA, Fold change relative to vehicle control [8]: 1.80 fold
- GZMA mRNA, Fold change relative to vehicle control [8]: 0.93 fold
- HTATIP2 mRNA, Fold change relative to vehicle control [8]: 2.87 fold
- MDM2 mRNA, Fold change relative to vehicle control [8]: 6.62 fold
- RB1 mRNA, Fold change relative to vehicle control [8]: 1.00 fold
- S100A4 mRNA, Fold change relative to vehicle control [8]: 1.49 fold
- TERT mRNA, Fold change relative to vehicle control [8]: 0.11 fold
- TNFRSF1A mRNA, Fold change relative to vehicle control [8]: 1.15 fold
- TNFRSF10B mRNA, Fold change relative to vehicle control [8]: 1.05 fold
- TNFRSF25 mRNA, Fold change relative to vehicle control [8]: 1.41 fold
- TP53 mRNA, Fold change relative to vehicle control [8]: 282.98 fold
- cell viability in Matrigel 3D culture [9]: suppresses cell viability
